Experimental findings from publication PMC6629785, “Synthesis and Pharmacological Evaluation of a Novel Peptide Based on Anemonia sulcata BDS-I Toxin as a New KV3.4 Inhibitor Exerting a Neuroprotective Effect Against Amyloid-β Peptide” (Frontiers in Chemistry, 2019) are described below.

Ends that are not written are not given here.

The test system of the test is NGF-differentiated PC-12 cells. Nature of the test: Assessment of nuclear morphology with Hoechst-33258 after Aβ1−42 exposure. The class given is cell-based, Rat. The note with it: peptide 100 nM pre-treatment; Aβ1−42 oligomers 5 μM, 24 h; Hoechst staining; 3 separate experiments, ~1,000 cells per group. The method, then: Rat pheochromocytoma cells (PC-12 cells) were grown as previously described (Pannaccione et al., [2005], [2007]). For all the experiments, cells were seeded at low density on glass cover-slips coated with poly-L-lysine (50 μg/ml). Differentiation of PC-12 cells was achieved by treatment with neuronal growth factor (NGF) 2.5 S (50 ng/ml) for 7–9 days (Greene and Tischler, [1976]). For electrophysiological experiments, cells were seeded on glass cover-slips and used after 7–9 days of NGF. […]
Nuclear morphology was evaluated by using the fluorescent DNA-binding dye Hoechst-33258 already described (Pannaccione et al., [2007]).
The peptide used in our study was synthesized by INBIOS (Pozzuoli, Naples, Italy) using the Aβ1−42 sequence of human APP [UniProtKB-P05067 (A4_HUMAN)]. The purity of the peptide was assessed by high-performance liquid chromatography (>95% pure) and the amino acid composition was verified by mass spectrometry. […] The pre-aggregated preparation of Aβ oligomers was analyzed in SDS-PAGE using the rabbit monoclonal anti-Aβ on precast gels 4-20%. […]
Figure 7 Effect of BDS-I[1-8] on Aβ1−42-induced abnormal nuclear morphology and caspase-3 activation in NGF-differentiated PC-12 cells. […] Values are expressed as mean±SEM of 3 independent experimental sessions. […]

Regarding blood depressing substance-I [BDS-I], the “effect on abnormal nuclear morphology induced by Aβ1−42 exposure” value was “able to significantly prevent”. The same measure for AAPAFASG [BDS-I[1-8]]: “able to significantly prevent”.
